# Reference: ChEMBL document CHEMBL3112480, “γ-Alkylidene-γ-lactones and isobutylpyrrol-2(5H)-ones analogues to rubrolides as inhibitors of biofilm formation by gram-positive and gram-negative bacteria” (Bioorg Med Chem Lett, 2014)
# Assays:
# Streptococcus mutans [1] = test: Antibacterial activity against Streptococcus mutans ATCC 25175 assessed as effect on planktonic growth at 21.9 ug/ml after 20 hrs relative to control; assay type: functional
# Streptococcus mutans [2] = test: Antibacterial activity against Streptococcus mutans ATCC 25175 assessed as effect on planktonic growth at 43.8 ug/ml after 20 hrs relative to control; assay type: functional
# Streptococcus mutans [3] = test: Antibacterial activity against Streptococcus mutans ATCC 25175 assessed as effect on planktonic growth at 87.5 ug/ml after 20 hrs relative to control; assay type: functional
# Staphylococcus aureus [4] = test: Antibacterial activity against Staphylococcus aureus ATCC 25923 assessed as effect on planktonic growth at 0.17 ug/ml after 20 hrs relative to control; assay type: functional
# Staphylococcus aureus [5] = test: Antibacterial activity against Staphylococcus aureus ATCC 25923 assessed as effect on planktonic growth at 0.34 ug/ml after 20 hrs relative to control; assay type: functional
# Staphylococcus aureus [6] = test: Antibacterial activity against Staphylococcus aureus ATCC 25923 assessed as effect on planktonic growth at 0.68 ug/ml after 20 hrs relative to control; assay type: functional
# Staphylococcus aureus [7] = test: Antibacterial activity against Staphylococcus aureus ATCC 25923 assessed as effect on planktonic growth at 1.37 ug/ml after 20 hrs relative to control; assay type: functional
# Staphylococcus aureus [8] = test: Antibacterial activity against Staphylococcus aureus ATCC 25923 assessed as effect on planktonic growth at 5.5 ug/ml after 20 hrs relative to control; assay type: functional
# Staphylococcus aureus [9] = test: Antibacterial activity against Staphylococcus aureus ATCC 25923 assessed as effect on planktonic growth at 2.73 ug/ml after 20 hrs relative to control; assay type: functional
# Staphylococcus aureus [10] = test: Antibacterial activity against Staphylococcus aureus ATCC 25923 assessed as effect on planktonic growth at 10.9 ug/ml after 20 hrs relative to control; assay type: functional
# Staphylococcus aureus [11] = test: Antibacterial activity against Staphylococcus aureus ATCC 25923 assessed as effect on planktonic growth at 21.9 ug/ml after 20 hrs relative to control; assay type: functional
# Staphylococcus aureus [12] = test: Antibacterial activity against Staphylococcus aureus ATCC 25923 assessed as effect on planktonic growth at 43.8 ug/ml after 20 hrs relative to control; assay type: functional
# Staphylococcus aureus [13] = test: Antibacterial activity against Staphylococcus aureus ATCC 25923 assessed as effect on planktonic growth at 87.5 ug/ml after 20 hrs relative to control; assay type: functional
# Pseudomonas aeruginosa [14] = test: Antibacterial activity against Pseudomonas aeruginosa ATCC 27853 assessed as effect on planktonic growth at 0.17 ug/ml after 20 hrs relative to control; assay type: functional
# Pseudomonas aeruginosa [15] = test: Antibacterial activity against Pseudomonas aeruginosa ATCC 27853 assessed as effect on planktonic growth at 0.34 ug/ml after 20 hrs relative to control; assay type: functional
# Pseudomonas aeruginosa [16] = test: Antibacterial activity against Pseudomonas aeruginosa ATCC 27853 assessed as effect on planktonic growth at 0.68 ug/ml after 20 hrs relative to control; assay type: functional
# Pseudomonas aeruginosa [17] = test: Antibacterial activity against Pseudomonas aeruginosa ATCC 27853 assessed as effect on planktonic growth at 1.37 ug/ml after 20 hrs relative to control; assay type: functional
# Pseudomonas aeruginosa [18] = test: Antibacterial activity against Pseudomonas aeruginosa ATCC 27853 assessed as effect on planktonic growth at 2.73 ug/ml after 20 hrs relative to control; assay type: functional
# Pseudomonas aeruginosa [19] = test: Antibacterial activity against Pseudomonas aeruginosa ATCC 27853 assessed as effect on planktonic growth at 5.5 ug/ml after 20 hrs relative to control; assay type: functional
# Pseudomonas aeruginosa [20] = test: Antibacterial activity against Pseudomonas aeruginosa ATCC 27853 assessed as effect on planktonic growth at 10.9 ug/ml after 20 hrs relative to control; assay type: functional
# Pseudomonas aeruginosa [21] = test: Antibacterial activity against Pseudomonas aeruginosa ATCC 27853 assessed as effect on planktonic growth at 21.9 ug/ml after 20 hrs relative to control; assay type: functional
# Pseudomonas aeruginosa [22] = test: Antibacterial activity against Pseudomonas aeruginosa ATCC 27853 assessed as effect on planktonic growth at 43.8 ug/ml after 20 hrs relative to control; assay type: functional
# Pseudomonas aeruginosa [23] = test: Antibacterial activity against Pseudomonas aeruginosa ATCC 27853 assessed as effect on planktonic growth at 87.5 ug/ml after 20 hrs relative to control; assay type: functional
# [24] = tested on: Staphylococcus epidermidis; test: Antibacterial activity against Staphylococcus epidermidis ATCC 35547 assessed as effect on planktonic growth at 0.17 ug/ml after 20 hrs relative to control; assay type: functional
# [25] = tested on: Staphylococcus epidermidis; test: Antibacterial activity against Staphylococcus epidermidis ATCC 35547 assessed as effect on planktonic growth at 0.34 ug/ml after 20 hrs relative to control; assay type: functional
# [26] = tested on: Staphylococcus epidermidis; test: Antibacterial activity against Staphylococcus epidermidis ATCC 35547 assessed as effect on planktonic growth at 0.68 ug/ml after 20 hrs relative to control; assay type: functional
# [27] = tested on: Staphylococcus epidermidis; test: Antibacterial activity against Staphylococcus epidermidis ATCC 35547 assessed as effect on planktonic growth at 1.37 ug/ml after 20 hrs relative to control; assay type: functional
# [28] = tested on: Staphylococcus epidermidis; test: Antibacterial activity against Staphylococcus epidermidis ATCC 35547 assessed as effect on planktonic growth at 2.73 ug/ml after 20 hrs relative to control; assay type: functional
# [29] = tested on: Staphylococcus epidermidis; test: Antibacterial activity against Staphylococcus epidermidis ATCC 35547 assessed as effect on planktonic growth at 5.5 ug/ml after 20 hrs relative to control; assay type: functional
# [30] = tested on: Staphylococcus epidermidis; test: Antibacterial activity against Staphylococcus epidermidis ATCC 35547 assessed as effect on planktonic growth at 10.9 ug/ml after 20 hrs relative to control; assay type: functional
# [31] = tested on: Staphylococcus epidermidis; test: Antibacterial activity against Staphylococcus epidermidis ATCC 35547 assessed as effect on planktonic growth at 21.9 ug/ml after 20 hrs relative to control; assay type: functional
# [32] = tested on: Staphylococcus epidermidis; test: Antibacterial activity against Staphylococcus epidermidis ATCC 35547 assessed as effect on planktonic growth at 43.8 ug/ml after 20 hrs relative to control; assay type: functional
# [33] = tested on: Staphylococcus epidermidis; test: Antibacterial activity against Staphylococcus epidermidis ATCC 35547 assessed as effect on planktonic growth at 87.5 ug/ml after 20 hrs relative to control; assay type: functional
# Streptococcus mutans [34] = test: Antibacterial activity against Streptococcus mutans ATCC 25175 assessed as inhibition of biofilm formation at 44 ug/ml after 20 hrs by crystal-violet staining method relative to control; assay type: functional; settings: ATCC 25175, 20 h
# Pseudomonas aeruginosa [35] = test: Antibacterial activity against Pseudomonas aeruginosa ATCC 27853 assessed as inhibition of biofilm formation after 20 hrs by crystal-violet staining method; assay type: functional, organism-based
# [36] = tested on: Staphylococcus epidermidis; test: Antibacterial activity against Staphylococcus epidermidis ATCC 35547 assessed as inhibition of biofilm formation after 20 hrs by crystal-violet staining method; assay type: functional, organism-based; settings: for IC50: ATCC 35547, 20 h
# Streptococcus mutans [37] = test: Antibacterial activity against Streptococcus mutans ATCC 25175 assessed as effect on planktonic growth at 0.17 ug/ml after 20 hrs relative to control; assay type: functional
# Streptococcus mutans [38] = test: Antibacterial activity against Streptococcus mutans ATCC 25175 assessed as effect on planktonic growth at 0.34 ug/ml after 20 hrs relative to control; assay type: functional
# Streptococcus mutans [39] = test: Antibacterial activity against Streptococcus mutans ATCC 25175 assessed as effect on planktonic growth at 0.68 ug/ml after 20 hrs relative to control; assay type: functional
# Streptococcus mutans [40] = test: Antibacterial activity against Streptococcus mutans ATCC 25175 assessed as effect on planktonic growth at 1.37 ug/ml after 20 hrs relative to control; assay type: functional
# Streptococcus mutans [41] = test: Antibacterial activity against Streptococcus mutans ATCC 25175 assessed as effect on planktonic growth at 2.73 ug/ml after 20 hrs relative to control; assay type: functional
# Streptococcus mutans [42] = test: Antibacterial activity against Streptococcus mutans ATCC 25175 assessed as effect on planktonic growth at 5.5 ug/ml after 20 hrs relative to control; assay type: functional
# Streptococcus mutans [43] = test: Antibacterial activity against Streptococcus mutans ATCC 25175 assessed as effect on planktonic growth at 10.9 ug/ml after 20 hrs relative to control; assay type: functional
smiles,measurement,setting,value
COc1ccc(C)cc1C1=C(Br)C(=O)N(CC(C)C)/C1=C\c1cccc(Cl)c1,Activity,Streptococcus mutans [1],-33.6%
same,Activity,Streptococcus mutans [2],-42.5%
same,Activity,Streptococcus mutans [3],-46.7%
same,Activity,Staphylococcus aureus [4],10.8%
same,Activity,Staphylococcus aureus [5],11.8%
same,Activity,Staphylococcus aureus [6],9.2%
same,Activity,Staphylococcus aureus [7],12%
same,Activity,Staphylococcus aureus [8],18.4%
same,Activity,Staphylococcus aureus [9],12.6%
same,Activity,Staphylococcus aureus [10],13.2%
same,Activity,Staphylococcus aureus [11],4%
same,Activity,Staphylococcus aureus [12],6.6%
same,Activity,Staphylococcus aureus [13],4.8%
same,Activity,Pseudomonas aeruginosa [14],0.9%
same,Activity,Pseudomonas aeruginosa [15],0.8%
same,Activity,Pseudomonas aeruginosa [16],0.8%
same,Activity,Pseudomonas aeruginosa [17],0%
same,Activity,Pseudomonas aeruginosa [18],3%
same,Activity,Pseudomonas aeruginosa [19],8.8%
same,Activity,Pseudomonas aeruginosa [20],13.5%
same,Activity,Pseudomonas aeruginosa [21],21.3%
same,Activity,Pseudomonas aeruginosa [22],25.6%
same,Activity,Pseudomonas aeruginosa [23],35.3%
same,Activity,[24],5.6%
same,Activity,[25],2.4%
same,Activity,[26],-4.2%
same,Activity,[27],6.4%
same,Activity,[28],11.4%
same,Activity,[29],1.1%
same,Activity,[30],-19.8%
same,Activity,[31],-38.6%
same,Activity,[32],-38.8%
same,Activity,[33],-12.6%
same,inhibition at 44 µg/mL,Streptococcus mutans [34],34%
same,inhibition,Pseudomonas aeruginosa [35],Dose-dependent effect
same,IC50,"Pseudomonas aeruginosa [35]; ATCC 27853, 20 h",0.6 µg/mL
same,inhibition,[36],Dose-dependent effect
same,IC50,[36],67.4 µg/mL
same,Activity,Streptococcus mutans [37],-4.4%
same,Activity,Streptococcus mutans [38],-4.1%
same,Activity,Streptococcus mutans [39],-6%
same,Activity,Streptococcus mutans [40],-14.9%
same,Activity,Streptococcus mutans [41],-18.8%
same,Activity,Streptococcus mutans [42],-26.3%
same,Activity,Streptococcus mutans [43],-32.3%
COc1ccc(Br)cc1C1=C(Br)C(=O)N(CC(C)C)C1(O)Cc1ccc(Br)cc1 (stereo not drawn),Activity,Streptococcus mutans [1],-13.7%
same,Activity,Streptococcus mutans [2],-17.9%
same,Activity,Streptococcus mutans [3],0.2%
same,Activity,Staphylococcus aureus [4],1.1%
same,Activity,Staphylococcus aureus [5],-3.4%
same,Activity,Staphylococcus aureus [6],-10.8%
same,Activity,Staphylococcus aureus [7],-14.8%
same,Activity,Staphylococcus aureus [8],-9%
same,Activity,Staphylococcus aureus [9],-17.9%
same,Activity,Staphylococcus aureus [10],-11.3%
same,Activity,Staphylococcus aureus [11],-15.6%
same,Activity,Staphylococcus aureus [12],-13.7%
same,Activity,Staphylococcus aureus [13],7.4%
same,Activity,Pseudomonas aeruginosa [14],-4%
same,Activity,Pseudomonas aeruginosa [15],-5.7%
same,Activity,Pseudomonas aeruginosa [16],-7%
same,Activity,Pseudomonas aeruginosa [17],-4.5%
same,Activity,Pseudomonas aeruginosa [18],0.8%
same,Activity,Pseudomonas aeruginosa [19],58.3%
same,Activity,Pseudomonas aeruginosa [20],64.1%
same,Activity,Pseudomonas aeruginosa [21],58.3%
same,Activity,Pseudomonas aeruginosa [22],63.9%
same,Activity,Pseudomonas aeruginosa [23],39.4%
same,Activity,[24],2.1%
same,Activity,[25],4.3%
same,Activity,[26],-5.4%
same,Activity,[27],8%
same,Activity,[28],4.8%
same,Activity,[29],-2.4%
same,Activity,[30],11.2%
same,Activity,[31],55.8%
same,Activity,[32],43.6%
same,Activity,[33],29.8%
same,inhibition,Pseudomonas aeruginosa [35],Dose-dependent effect
same,inhibition,[36],Dose-dependent effect
same,IC50,[36],13.3 µg/mL
same,Activity,Streptococcus mutans [37],-13.2%
same,Activity,Streptococcus mutans [38],-7%
same,Activity,Streptococcus mutans [39],-8%
same,Activity,Streptococcus mutans [40],4%
same,Activity,Streptococcus mutans [41],-6%
same,Activity,Streptococcus mutans [42],-3%
same,Activity,Streptococcus mutans [43],-8%
